Measurements taken from PubChem BioAssay (NCI).
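Exposure lasted 48 hours, with cells grown in 96-well plates and compounds tested at five concentrations. Definition used: TGI = concentration required for complete inhibition of growth.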

Assays:
Test in all cases: NCI anticancer screen, dose series, 48 h
K-562 leukemia = tested on: K-562 leukemia
RPMI-8226 leukemia = tested on: RPMI-8226 leukemia
MOLT-4 leukemia = tested on: MOLT-4 leukemia
SR leukemia = tested on: SR leukemia
NCI/ADR-RES ovarian = tested on: NCI/ADR-RES ovarian
SN12C renal = tested on: SN12C renal
SF-295 CNS = tested on: SF-295 CNS
SK-MEL-2 melanoma = tested on: SK-MEL-2 melanoma
SK-MEL-28 melanoma = tested on: SK-MEL-28 melanoma
HCT-116 colon = tested on: HCT-116 colon

Row | SMILES | TGI (K-562 leukemia) | TGI (RPMI-8226 leukemia) | TGI (MOLT-4 leukemia) | TGI (SR leukemia) | TGI (NCI/ADR-RES ovarian) | TGI (SN12C renal) | TGI (SF-295 CNS) | TGI (SK-MEL-2 melanoma) | TGI (SK-MEL-28 melanoma) | TGI (HCT-116 colon)
1 | CCOC(=O)CC(C)C(C#N)(OP1(=O)OC(c2ccccc2)C(C)N1C)c1ccccc1 (stereo not given) | > 100 µM | > 100 µM | 73.1 µM | > 100 µM | > 100 µM | > 100 µM | > 100 µM | > 100 µM | > 100 µM | > 100 µM
2 | N#CI1OC(=O)c2ccccc21 | > 100 µM | > 100 µM | > 100 µM | > 100 µM | > 100 µM | > 100 µM | > 100 µM | > 100 µM | > 100 µM | > 100 µM
3 | O=C(Cc1ccc(Cl)c(Cl)c1)NCCCN1CCN(CCCN2CCCCC2)CC1 | 7.5 µM | 16.3 µM | 28.8 µM | 29 µM | > 100 µM | 39 µM | 37.7 µM | 21.6 µM | 4.95 µM | 32.9 µM
4 | O=S(=O)(O)c1ccc(NN(c2c(O)ccc3ccccc23)S(=O)(=O)O)cc1 | > 100 µM | > 100 µM | > 100 µM | > 100 µM | > 100 µM | > 100 µM | > 100 µM | > 100 µM | > 100 µM | > 100 µM
5 | c1cc(-c2cscc2-c2ccsc2)cs1 | > 100 µM | > 100 µM | > 100 µM | > 100 µM | > 100 µM | > 100 µM | > 100 µM | 28.4 µM | > 100 µM | > 100 µM
6 | COc1ccc(CN2C(=O)CCC/C=C\[C@H]2CI)cc1 | > 100 µM | 31.2 µM | 25.6 µM | > 100 µM | 28.2 µM | 27 µM | 26.3 µM | 23 µM | 25.2 µM | 24 µM
7 | c1ccc(COc2ccc(C[P+](c3ccccc3)(c3ccccc3)c3ccccc3)cc2)cc1 | 2.17 µM | 0.201 µM | 1.94 µM | > 24.2 µM | 49.1 µM | 5.03 µM | 2.97 µM | 0.727 µM | 5.04 µM | 1.68 µM
8 | O=C(CCSC(CC(=O)c1ccc(Cl)cc1)c1ccc(Cl)cc1)Nc1ccc(Cl)cc1 (stereo not given) | 18.6 µM | 5.57 µM | 11.5 µM | 9.57 µM | 40.2 µM | 24.8 µM | 25.8 µM | 28.9 µM | 29.4 µM | 18.5 µM
9 | CN1CC(c2ccccc2)=Cc2c1ccc(N)c2N=N | > 100 µM | > 100 µM | > 100 µM | > 100 µM | > 100 µM | > 100 µM | > 100 µM | > 100 µM | > 100 µM | > 100 µM
10 | NCCC1(N)CCNCC1 | > 100 µM | > 100 µM | > 100 µM | > 100 µM | > 100 µM | > 100 µM | > 100 µM | > 100 µM | > 100 µM | > 100 µM
11 | COc1ccc(C[C@@H]2CN(C(=O)c3ccccc3)[C@H](Cc3ccc(O)cc3)CN2C(=O)c2ccccc2)cc1Br | > 100 µM | > 100 µM | > 100 µM | > 100 µM | > 100 µM | > 100 µM | > 100 µM | > 100 µM | > 100 µM | > 100 µM
12 | N#Cc1[nH]c(=O)n(-c2ccc([N+](=O)[O-])cc2)c1N | > 10 µM | > 10 µM | > 10 µM | > 10 µM | > 10 µM | > 10 µM | > 10 µM | > 10 µM | > 10 µM | > 10 µM
13 | C[N+]1(C)CC=C(N2CCOCC2)CC1 | > 10 µM | > 10 µM | > 10 µM | > 10 µM | > 10 µM | > 10 µM | > 10 µM | > 10 µM | > 10 µM | > 10 µM
14 | Oc1ccc(-c2cc(-c3c(O)cc(O)cc3O)on2)cc1 | > 100 µM | > 100 µM | > 100 µM | > 100 µM | > 100 µM | > 100 µM | > 100 µM | > 100 µM | > 100 µM | > 100 µM
15 | O=S(=O)(O)c1cc(Cl)c(O)c2ncc(Cl)cc12 | > 100 µM | > 100 µM | 66.4 µM | > 100 µM | > 100 µM | > 100 µM | > 100 µM | > 100 µM | > 100 µM | > 100 µM
